Data: patent KR20190134073A, “셀레질린을 유효성분으로 포함하는 급성 골수성 백혈병의 예방 또는 치료용 약학 조성물” (충남대학교산학협력단, priority 2018, dated 2019)

What was measured:
Type in all cases: cell-based
[1] = test system: KG-1α cells (refractory or relapsed acute myeloid leukemia cells) [불응성 또는 재발성 급성 골수성 백혈병 세포(KG-1α)]; experiment: Cell viability (CCK-8) in refractory/relapsed AML cells KG-1α; conditions: for viability at 500 µM / viability at 1000 µM / viability at 2000 µM / viability at 4000 µM: Homo sapiens, KG-1, 24 h, read-out: cell viability; for cell killing effect: KG-1α, 0.5, 1, 2 and 4 mM, 24 h, in words
[2] = test system: U937 cells (acute myeloid leukemia cells) [급성 골수성 백혈병 세포(U937)]; experiment: cells; conditions: for cell killing effect: acute leukemia cells (U937), 0.5, 1, 2 and 4 mM, 24 h, in words
[3] = test system: K562 cells (chronic myeloid leukemia cells) [만성 골수성 백혈병 세포(K562)]; experiment: Cell viability (CCK-8) in CML cells K562; conditions: K562 vs U937 or KG-1α; 0.5, 1, 2 and 4 mM; 24 h; in words, not shown in Table 1
[4] = test system: KG-1α cells (refractory or relapsed acute myeloid leukemia cells) [불응성 또는 재발성 급성 골수성 백혈병 세포(KG-1α)]; experiment: Change of mitochondrial oxygen consumption rate in KG-1α cells; conditions: 0, 0.5, 1, 2, 4 mM, 20 min, FIG. 2, in words
[5] = test system: KG-1α cells (refractory or relapsed acute myeloid leukemia cells) [불응성 또는 재발성 급성 골수성 백혈병 세포(KG-1α)]; experiment: Change of ATP production in KG-1α cells (ATPlite 1step kit); conditions: 4 mM, 20 min, 37℃, control PBS, FIG. 3, in words
[6] = Homo sapiens, U-937, 24 h, read-out: cell viability

Compound | viability at 500 µM [1] [%] | viability at 1000 µM [1] [%] | viability at 2000 µM [1] [%] | viability at 4000 µM [1] [%] | cell killing effect [1] | cell killing effect [2] | cell killing effect in K562 compared with U937 or KG-1α [3] | oxygen consumption rate [4] | ATP production [5] | viability at 500 µM [2, 6] [%] | viability at 1000 µM [2, 6] [%] | viability at 2000 µM [2, 6] [%] | viability at 4000 µM [2, 6] [%]
C#CCN(C)[C@H](C)Cc1ccccc1 [셀레질린, selegiline] | 93.1 | 86 | 63 | 51.8 | 세포 사멸 효과가 우수하게 나타남 | 세포 사멸 효과를 모두 나타내는 것 | 만성 골수성 백혈병 세포(K562)에 대한 세포 사멸 효과 보다는 급성 골수성 백혈병 세포(U937) 또는 불응성 또는 재발성 급성 골수성 백혈병 세포(KG-1α)에 대한 세포 사멸 효과가 우수하였다 | 산소 소모율이 농도 의존적으로 감소함 | ATP 생성이 감소됨 |  |  |  | 
Nc1ccn([C@@H]2O[C@H](CO)[C@@H](O)[C@@H]2O)c(=O)n1 [시타라빈] | 95.2 | 96.9 | 97.7 | 95.3 | 세포 사멸 효과를 나타내지 않은 | 세포 사멸 효과는 우수하였으나 |  |  |  | 45.3 | 43.9 | 40.9 | 40.7
